According to patent US10039742B2, “Sn-2-monoacylglycerols and lipid malabsorption” (Nestec S.A., priority 2010, dated 2018):

Assay: Lipid maldigestion/malabsorption animal model obtained with Orlistat: EPA incorporation in red blood cells, plasma lipids and tissues
Format: in vivo, rats
Conditions: comparison between the groups receiving fish oil with or without Orlistat; day 7
Excerpt: Treatments: Control rats fed fish oil with or without Orlistat and rats fed NAG derivatives described in FIGS. 1A and 1B. Values are means±SEM (n=6).
The inventors tested their concept in a lipid malabsorption animal model. The lipid maldigestion/malabsorption conditions were obtained using Orlistat®, a well known pancreatic and gastric lipases inhibitor. Animals were fed with long-chain polyunsaturated fatty acid (LC-PUFA) supplements containing mainly eicosapentaenoic (EPA) acid. Fish oil was used as a source of triacylglycerols and different EPA glycerides, for example those of FIGS. 1A and 1B, were evaluated. At different time intervals the fatty acid profile of red blood cells and plasma lipids was assessed. At the end of the experiment, fatty acid profiles of different tissues were determined. […]
The concept was tested in a lipid maldigestion or malabsorption animal model. […] Fish oil was used as a source of triacylglycerols and the different EPA glycerides provided in FIGS. 1A and 1B were evaluated. […] At the end of the experiment, fatty acid profiles of different tissues were determined.
The main objective was to follow the level of EPA in red blood cell and plasma lipids. The main comparison evaluated was the difference in EPA level between groups receiving EPA derivatives (FIGS. 1A and 1B) in combination with Orlistat and the […] control group (fish oil+Orlistat).

## CCCCCCCCCCC[C@@H](C[C@@H]1OC(=O)[C@H]1CCCCCC)OC(=O)[C@H](CC(C)C)NC=O [Orlistat]
  EPA incorporation in red blood cells: decrease EPA incorporation in red blood cells
